# Test results: US20230190857A1, “PEPTIDE WITH AMIDATED CARBOXY TERMINUS HAVING MELANOGENESIS INHIBITORY ACTIVITY AND COMPOSITION COMPRISING SAME” (RUBY CROWN CO. LTD., priority 2018, published 2023)
# Entries after “also recorded” stand apart in the source; their conditions may differ. Ends that are not written are not given here. Peptide text beside a SMILES is read from it.
# Key:
# [1] = tested on: dopachrometautomerase (DCT); experiment: Western blotting, DCT protein level in B16-F10 cells; type: cell-based, murine; conditions: both in the presence and in the absence of α-MSH, FIG. 8b
# Description: (§1) Western blotting was performed as described in a document [Study on phenolic compounds and novel peptides inhibiting UVB- and PM10-induced MMP1 expression and melanogenesis in skin cells. PhD Thesis 2017. Kyungpook National University, Korea]. B16-F10 cells were dissolved in 10 mM of cold Tris-HCl buffer solution (pH 7.2) containing 150 mM of NaCl, 5 mM of EDTA, 0.1% sodium dodecyl sulfate (SDS), 1% triton X-100, 1% deoxycholate, 1 mM of phenylmethylsulphonyl fluoride and protease inhibitor cocktail (Roche). A part of cytolysate (30 μg of protein) was mixed with Laemmli sample buffer, then heated at 95° C. for five minutes to be denaturalized, and then was subject to electrophoresis in 10% SDS-polyacrylamide gel. After the electrophoresis, protein was transferred from gel to polyvinylidene difluoride membrane (Amersham Pharmacia, Little Chalfont, UK). Primary antibodies for TYR, TYRP1, DCT, MITF and @-actin were purchased from Santa Cruz Biotechnology (Santa Cruz, Calif., USA). Primary antibodies for CREB, phospho-CREB (Ser133), extracellular signal-regulated kinase (ERK) and phospho-ERK (Thr202/Tyr204) were purchased from Cell Signaling (located in Danvers, Mass., USA). […] A protein band was visualized by using picoEPD Western Reagent kit (Elpis-Biotech, Daejeon, South Korea), and a depth of image was analyzed by using National Institutes of Health ImageJ program.
# [2] = tested on: tyrosinase-related protein 1 (TYRP1); experiment: Western blotting, TYRP1 protein level in B16-F10 cells; type: cell-based, murine; conditions: both in the presence and in the absence of α-MSH, FIG. 8b
# Description: as §1
# [3] = tested on: cAMP-responsive element binding protein (CREB); experiment: Western blotting, phosphorylation of CREB in B16-F10 cells; type: cell-based, murine; conditions: stimulated with α-MSH, FIG. 9a
# Description: as §1, with “program. […]” for “program.”
# B16-F10 cells [4] = experiment: Cell viability, MTT assay, B16-F10 cells; type: cell-based, murine; conditions: up to 300 μM, FIG. 7a
# Description: (§2) Cell viability was measured by using a 3-(4,5-dimethylthiazol-2-yl)-2,5-diphenyltetrazolium bromide (MTT) assay. B16-F10 cell lines were treated with test peptides at various concentrations for 72 hours. The cells were washed with PBS and cultured in 100 μl of culture fluid, to which 1 mg/mL of MTT (Amresco, Solon, Ohio, USA) was added, for three hours. After that, the culture fluid was removed therefrom and formazan accumulated inside the cells was extracted with 100 μl of dimethyl sulfoxide (DMSO). Absorbance of the extracted solution was measured at 595 nm by using SPECTROstar Nano microplate reader (BMG LABTECH GmbH, Ortenberg, Germany).
# (§3) After the B16-F10 cells and HEM were treated with the peptides of Examples 1 to 4 according to the same method, cell viability was measured and the results thereof were summarized in FIGS. 1b, 2b, 3b, 4b, 5b, 6b and 7a respectively.
# tyrosinase (TYR) [5] = experiment: TYR activity assay in cell-free extract of treated B16-F10 cells; type: cell-based, murine; conditions: treated 60 minutes, then 100 nM α-MSH 24 hours, FIG. 8a
# Description: B16-F10 cells were treated with glycinamide-HCl for 60 minutes and stimulated for 24 hours by using 100 nM of α-MSH. The cells were dissolved in 10 mM of cold Tris-HCl buffer solution (pH 7.4) containing 120 mM of sodium chloride, 25 mM of potassium chloride, 2.0 mM of ethylene glycol tetraacetic acid, 1.0 mM of ethylenediaminetetraacetic acid, 0.5% triton X-100, protease inhibitor cocktail (Roche, Mannheim, Germany). Cytolysate was centrifuged at 13,000×g at 4° C. for 15 minutes to obtain a cell-free extract therefrom. TYR activity was measured by using L-tyrosine and L-3,4-dihydroxyphenylalanine. A reaction mixture (200 μL) includes 100 mM of sodium phosphate (pH 6.8), 1.0 mM of L-tyrosine, 42 μM of L-3,4-dihydroxy phenylalanine and a cell-free extract (40 μg of protein), which was cultured at 37° C. A change in absorbance was measured at 475 nm by using Spectrostar Nano microplate reader.
# B16-F10 cells [6] = experiment: Melanogenesis inhibitory activity (melanin content) in B16-F10 cells stimulated with α-MSH; type: cell-based, murine; conditions: for melanogenesis inhibitory effect of short peptides (melanin content): peptide 30 μM to 100 μM, FIG. 4a; for melanogenesis inhibitory effect of glycine derivatives (melanin content): various concentrations, FIG. 5a
# Description: (§4) Cells were cultured in a humidified incubator at 37° C. and 5% CO2. Murine melanoma B16-F10 cell lines were cultured in Dulbecco' Modified Eagle Medium containing 10% fetal bovine serum and antibiotics (100 U/mL of penicillin, 0.1 mg/mL of streptomycin and 0.25 μg/mL of amphotericin B), which were purchased from the American Type Culture Collection (Manassas, Va., USA). A human epidermal melanocyte (HEM), derived from a pigmented human neonatal foreskin, was purchased from Cascade Biologics (Portland, Oreg., USA) and cultured in medium 254 containing human melanocyte growth supplements (Cascade Biologics) and antibiotics.
# (§5) A melanin formation inhibitory effect of the peptide to be analyzed was confirmed by using B16-F10 cell lines and HEM. The B16-F10 cells were treated with test peptides at various concentrations and stimulated for 72 hours by using 100 nM of α-MSH. Hexapeptide B6 (Phe-Ser-His-His-Leu-Gly-NH2) (SEQ ID NO: 20), p-coumaric acid and arbutin were used as a control group. A level of extracellular melanin was measured by using a conditioned medium in which cells were previously cultured. Intracellular melanin was extracted at 60° C. for 60 minutes by using 1.0 M NaOH. A content of melanin was spectroscopically measured by measuring absorbance at 475 nm and resultant values were normalized with regard to a total protein content of cells by using Bio-Rad DC assay.
# [7] = tested on: microphthalmia-associated transcription factor (MITF); experiment: Western blotting, MITF protein level in B16-F10 cells; type: cell-based, murine; conditions: stimulated with α-MSH, FIG. 9b
# Description: as §1, with “program. […]” for “program.”
# tyrosinase (TYR) [8] = experiment: Western blotting, TYR protein level in B16-F10 cells; type: cell-based, murine; conditions: both in the presence and in the absence of α-MSH, FIG. 8b
# Description: as §1
# [9] = tested on: extracellular signal-regulated kinase (ERK); experiment: Western blotting, phosphorylation of ERK in B16-F10 cells; type: cell-based, murine; conditions: stimulated with α-MSH, FIG. 9a
# Description: as §1, with “program. […]” for “program.”
# [10] = tested on: human epidermal melanocyte (HEM); experiment: Melanogenesis inhibitory activity (intracellular and extracellular melanin) in HEMs stimulated with α-MSH; type: cell-based; conditions: FIG. 6a
# Description: as §4
# as §5, with “assay. […]” for “assay.”
# [11] = tested on: human epidermal melanocyte (HEM); experiment: Cell viability, MTT assay, HEMs; type: cell-based; conditions: FIG. 6b
# Description: as §2, §3
compound,measurement,setting,value
Cl.NCC(N)=O [glycinamide-HCl],protein level of DCT,[1],significantly reduced
same,protein level of TYRP1,[2],significantly reduced
same,phosphorylation of CREB,[3],inhibited
same,cytotoxicity in B16-F10 cells,B16-F10 cells [4],did not cause any cytotoxicity
same,TYR activity increased by α-MSH,tyrosinase (TYR) [5],significantly weakened
same,level of intracellular and extracellular melanins,"B16-F10 cells [6]; 25-100 μM, cells stimulated with α-MSH, FIG. 7b",reduced
same,level of MITF expression increased by α-MSH,[7],weakened
same,protein level of TYR,tyrosinase (TYR) [8],significantly reduced
same,phosphorylation of ERK,[9],did not affect
Phe-Trp-Gly-NH2 [E5],increase in content of intracellular and extracellular melanins in HEMs,[10],weakened
same,melanogenesis inhibitory effect of short peptides (melanin content),"B16-F10 cells [6]; 100 nM α-MSH, 72 hours",melanogenesis inhibitory activity higher than that of other tripeptides
"N=C(N)NCCC[C@H](N)C(=O)N[C@@H](Cc1ccccc1)C(=O)N[C@@H](Cc1c[nH]c2ccccc12)C(=O)NCC(N)=O [D3, Arg-Phe-Trp-Gly-NH2] (H-RFWG-NH2)",HEMs cell viability / cytotoxicity,[11],almost no cytotoxicity
"NCC(N)=O [G1, glycinamide]",increase in content of intracellular and extracellular melanins in HEMs,[10],weakened
same,melanogenesis inhibitory effect of glycine derivatives (melanin content),"B16-F10 cells [6]; 100 nM α-MSH, 72 hours",maintains anti-melanogenesis activity
same,HEMs cell viability / cytotoxicity,[11],almost no cytotoxicity
"NC(=O)CNC(=O)[C@@H](N)Cc1c[nH]c2ccccc12 [F1, Trp-Gly-NH2] (H-Trp-Gly-NH2)",HEMs cell viability / cytotoxicity,[11],almost no cytotoxicity
Arg-Trp-Gly-NH2 [E7],melanogenesis inhibitory effect of short peptides (melanin content),"B16-F10 cells [6]; 100 nM α-MSH, 72 hours",melanogenesis inhibitory activity higher than that of other tripeptides
Phe-Arg-Trp-Gly (FRWG-NH2) [D9],melanogenesis inhibitory activity compared with p-coumaric acid and arbutin,"B16-F10 cells [6]; peptide 10-30 μM, 100 nM α-MSH, 72 hours, molar comparison, FIG. 3a",melanogenesis inhibitory activity at a concentration lower than that of p-coumaric acid and arbutin; also recorded: the most powerful melanogenesis inhibitory effect
"CC(C)C[C@H](NC(=O)[C@@H](N)CCCNC(=N)N)C(=O)N[C@@H](Cc1c[nH]c2ccccc12)C(=O)NCC(N)=O [D5, Arg-Leu-Trp-Gly-NH2] (H-RLWG-NH2)",HEMs cell viability / cytotoxicity,[11],almost no cytotoxicity
"NCC(=O)O [free glycine, glycine, reference compound]",melanogenesis inhibitory effect of glycine derivatives (melanin content),"B16-F10 cells [6]; 100 nM α-MSH, 72 hours",no activity
"Phe-Ser-His-His-Leu-Gly-NH2 (FSHHLG-NH2) [Hexa-peptide B6, reference compound]",melanogenesis inhibitory effect of individual tetrapeptides (melanin content),"B16-F10 cells [6]; peptide 30 μM and 100 μM, 100 nM α-MSH, 72 hours, FIG. 2a",showed a melanogenesis inhibitory effect at 100 μM only
Leu-Trp-Gly-NH2 [E6],melanogenesis inhibitory effect of short peptides (melanin content),"B16-F10 cells [6]; 100 nM α-MSH, 72 hours",melanogenesis inhibitory activity higher than that of other tripeptides
